PubChem BioAssay (NCI)
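The compound was tested at five concentrations on cells cultured in 96-well plates, with a 48-hour exposure period. The concentration for full growth arrest is given as TGI.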 Where a SMILES comes first, the peptide text is derived from it. [ ]: non-standard residue; d: D form. Hiv = CC(C)[C@H](O)C(=O)O

Assays:
Assay in all cases: growth of human tumour cells (NCI), 48 h
786-0 renal = system: 786-0 renal
A498 renal = system: A498 renal
A549 NSCLC = system: A549 NSCLC
ACHN renal = system: ACHN renal
CAKI-1 renal = system: CAKI-1 renal
CCRF-CEM leukemia = system: CCRF-CEM leukemia
COLO 205 colon = system: COLO 205 colon
DU-145 prostate = system: DU-145 prostate
EKVX NSCLC = system: EKVX NSCLC
HCC-2998 colon = system: HCC-2998 colon
HCT-116 colon = system: HCT-116 colon
HCT-15 colon = system: HCT-15 colon
HL-60(TB) leukemia = system: HL-60(TB) leukemia
HOP-62 NSCLC = system: HOP-62 NSCLC
HOP-92 NSCLC = system: HOP-92 NSCLC
HS 578T breast = system: HS 578T breast
HT29 colon = system: HT29 colon
IGROV1 ovarian = system: IGROV1 ovarian
KM12 colon = system: KM12 colon
LOX IMVI melanoma = system: LOX IMVI melanoma
M14 melanoma = system: M14 melanoma
MALME-3M melanoma = system: MALME-3M melanoma
MCF7 breast = system: MCF7 breast
MDA-MB-231 breast = system: MDA-MB-231 breast
MDA-MB-435 = system: MDA-MB-435
MDA-N = system: MDA-N
MOLT-4 leukemia = system: MOLT-4 leukemia
NCI-H226 lung = system: NCI-H226 lung
NCI-H23 lung = system: NCI-H23 lung
NCI-H460 lung = system: NCI-H460 lung
NCI/ADR-RES ovarian = system: NCI/ADR-RES ovarian
OVCAR-3 ovarian = system: OVCAR-3 ovarian
OVCAR-4 ovarian = system: OVCAR-4 ovarian
OVCAR-5 ovarian = system: OVCAR-5 ovarian
OVCAR-8 ovarian = system: OVCAR-8 ovarian
PC-3 prostate = system: PC-3 prostate
RXF 393 renal = system: RXF 393 renal
SF-268 CNS = system: SF-268 CNS
SF-295 CNS = system: SF-295 CNS
SF-539 CNS = system: SF-539 CNS
SK-MEL-2 melanoma = system: SK-MEL-2 melanoma
SK-MEL-28 melanoma = system: SK-MEL-28 melanoma
SK-MEL-5 melanoma = system: SK-MEL-5 melanoma
SK-OV-3 ovarian = system: SK-OV-3 ovarian
SN12C renal = system: SN12C renal
SNB-19 CNS = system: SNB-19 CNS
SR leukemia = system: SR leukemia
SW-620 colon = system: SW-620 colon
T-47D breast = system: T-47D breast
TK-10 renal = system: TK-10 renal
UACC-257 melanoma = system: UACC-257 melanoma
UACC-62 melanoma = system: UACC-62 melanoma
K-562 leukemia = system: K-562 leukemia
NCI-H522 lung = system: NCI-H522 lung
RPMI-8226 leukemia = system: RPMI-8226 leukemia
SNB-75 CNS = system: SNB-75 CNS
U251 CNS = system: U251 CNS
UO-31 renal = system: UO-31 renal

Measured: TGI

CC(C)[C@@H]1OC(=O)[C@@H](C)NC(=O)[C@@H]2CCCN2C1=O (cyclo([Hiv]-Pro-[dA]))
not listed: K-562 leukemia | NCI-H522 lung | RPMI-8226 leukemia | SNB-75 CNS | U251 CNS | UO-31 renal
> 100 µM: all other assays above

Cc1ccc(/C=C2\NC(=S)N(CN3CCCCC3)C2=O)cc1
86.7 µM: CCRF-CEM leukemia
94.4 µM: HOP-92 NSCLC
72.7 µM: HT29 colon
39.8 µM: COLO 205 colon
not listed: CAKI-1 renal | HCC-2998 colon | HL-60(TB) leukemia | NCI-H460 lung | RXF 393 renal | SF-539 CNS | T-47D breast | UACC-257 melanoma
> 100 µM: all other assays above
